Source: patent US20230242530A1, “8-(AZETIDIN-1-YL)-[1,2,4]TRIAZOLO[1,5-A]PYRIDINYL COMPOUNDS, COMPOSITIONS AND METHODS OF USE THEREOF” (Genentech, Inc., priority 2016, published 2023)

Legend:
[1] = molecular target: T1, isolated recombinant JAK1 kinase domain (Homo sapiens, UniProt P23458); experiment: JAK enzyme assay, JAK1 kinase domain (Caliper LabChip); type: biochemical; conditions: 1.5 nM JAK1, ATP 25 μM, Morrison tight binding model
T1 construct: isolated recombinant JAK1 and JAK2 kinase domain
T1 sequence (P23458 875-1153 limits assumed): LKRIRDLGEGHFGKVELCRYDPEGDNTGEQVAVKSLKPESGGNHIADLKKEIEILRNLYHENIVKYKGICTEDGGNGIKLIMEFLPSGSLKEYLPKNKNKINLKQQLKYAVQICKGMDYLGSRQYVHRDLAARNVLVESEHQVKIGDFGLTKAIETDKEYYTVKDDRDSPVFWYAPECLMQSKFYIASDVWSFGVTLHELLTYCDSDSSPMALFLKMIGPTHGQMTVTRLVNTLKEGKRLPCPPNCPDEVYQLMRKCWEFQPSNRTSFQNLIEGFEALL
Summary of the method: (§1)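 Recombinant kinase domains phosphorylated a 5-carboxyfluorescein-labelled JAK3-derived peptide for 30 min at 22 °C, and the reaction was stopped with EDTA (50 mM final). Product fraction was measured by Caliper LabChip mobility shift. Ki came from Morrison tight-binding fits corrected for ATP competition (Ki=Ki,app/(1+[ATP]/Km,app)).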

[2] = molecular target: T2, isolated recombinant JAK2 kinase domain (Homo sapiens, UniProt O60674); experiment: JAK enzyme assay, JAK2 kinase domain (Caliper LabChip); type: biochemical; conditions: 0.2 nM JAK2, ATP 25 μM, Morrison tight binding model
T2 construct: isolated recombinant JAK1 and JAK2 kinase domain
T2 sequence (O60674 849-1124 limits assumed): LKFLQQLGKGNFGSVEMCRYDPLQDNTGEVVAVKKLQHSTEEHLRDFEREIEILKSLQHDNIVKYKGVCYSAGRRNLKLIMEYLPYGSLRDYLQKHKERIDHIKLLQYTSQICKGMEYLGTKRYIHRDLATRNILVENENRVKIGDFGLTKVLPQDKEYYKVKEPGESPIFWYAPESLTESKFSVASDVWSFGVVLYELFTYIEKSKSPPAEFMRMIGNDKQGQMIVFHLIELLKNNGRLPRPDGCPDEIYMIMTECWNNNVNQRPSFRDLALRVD
Summary of the method: as §1

[3] = test system: JAK1-dependent STAT6 phosphorylation downstream of IL-13 stimulation in BEAS-2B cells; experiment: JAK1 pathway assay in cell lines: IL-13 p-STAT6 BEAS-2B; type: cell-based; conditions: BEAS-2B human bronchial epithelial cells, 1 hr compound, IL-13 15 min, MSD readout
Summary of the method: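 BEAS-2B cells plated a day ahead in complete growth medium; compounds added 1 hr at 37 °C (0.2% DMSO final), then IL-13 at lot-specific EC90 for 15 min at 37 °C. Phospho-STAT6 in lysates measured by MSD; EC50 is 50% inhibition relative to DMSO control.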

Ki [1]	Ki [2]	SMILES	EC50 [3]
0.2 nM	0.3 nM	Cn1cc(Nc2nc3c(N4CC(CC#N)(n5cc(OC(F)F)cn5)C4)cccn3n2)cn1 [Example 145, 2-[3-[4-(difluoromethoxy)pyrazol-1-yl]-1-[2-[(l-methylpyrazol-4-yl)amino]-[1,2,4]triazolo[1,5-a]pyridin-8-yl]azetidin-3-yl]acetonitrile]	6 nM
0.8 nM	6.1 nM	Cc1nn(C2(CC#N)CN(c3cccn4nc(Nc5cnn(CC(=O)N6CCN(C)CC6)c5)nc34)C2)cc1C1CCCCC1 [Example 120, 2-[3-(4-cyclohexyl-3-methyl-pyrazol-1-yl)-1-[2-[[1-[2-(4-methylpiperazin-1-yl)-2-oxo-ethyl]pyrazol-4-yl]amino]-[1,2,4]triazolo[1,5-a]pyridin-8-yl]azetidin-3-yl]acetonitrile]	46 nM
0.4 nM	1 nM	CCc1cnn(C2(CC#N)CN(c3cccn4nc(Nc5ccc(C(=O)N(C)CC6CCN(C7COC7)CC6)cc5)nc34)C2)c1 [Example 88, 4-[[8-[3-(cyanomethyl)-3-(4-ethylpyrazol-1-yl)azetidin-1-yl]-[1,2,4]triazolo[1,5-a]pyridin-2-yl]amino]-N-methyl-N-[[1-(oxetan-3-yl)-4-piperidyl]methyl]benzamide]	35 nM
0.3 nM	0.6 nM	CSc1cnn(C2(CC#N)CN(c3cccn4nc(Nc5cnn(C)c5)nc34)C2)c1 [Example 147, 2-[1-[2-[(1-methylpyrazol-4-yl)amino]-[1,2,4]triazolo[1,5-a]pyridin-8-yl]-3-(4-methylsulfanylpyrazol-1-yl)azetidin-3-yl]acetonitrile]	10 nM
0.3 nM	1 nM	COCCN1CCN(C(=O)Cn2cc(Nc3nc4c(N5CC(CC#N)(n6cc(C(F)(F)F)cn6)C5)cccn4n3)cn2)CC1 [Example 94]	54 nM
0.5 nM	4.4 nM	N#CCC1(n2cc(C(F)(F)F)cn2)CN(c2cccn3nc(Nc4ccc5c(c4)CCN(C4COC4)C5)nc23)C1 [Example 121, 2-[1-[2-[[2-(oxetan-3-yl)-3,4-dihydro-1H-isoquinolin-6-yl]amino]-[1,2,4]triazolo[1,5-a]pyridin-8-yl]-3-[4-(trifluoromethyl)pyrazol-1-yl]azetidin-3-yl]acetonitrile]	31 nM
2 nM	3.8 nM	Cc1ccccc1-c1cnn(C2(CC#N)CN(c3cccn4nc(Nc5cnn(CC(=O)N6CCC(N(C)C7COC7)CC6)c5)nc34)C2)c1 [Example 124]	85 nM
0.5 nM	0.4 nM	CN(CC1(C#N)CC1)C1CCN(C(=O)Cn2cc(Nc3nc4c(N5CC(CC#N)(n6cc(C(F)(F)F)cn6)C5)cccn4n3)cn2)CC1 [Example 109, 1-[[[1-[2-[4-[[8-[3-(cyanomethyl)-3-[4-(trifluoromethyl)pyrazol-1-yl]azetidin-1-yl]-[1,2,4]triazolo[1,5-a]pyridin-2-yl]amino]pyrazol-1-yl]acetyl]-4-piperidyl]-methyl-amino]methyl]cyclopropane carbonitrile]	58 nM

Second part, the compound before the results:

SMILES	Ki [1]	Ki [2]	EC50 [3]
CCc1cnn(C2(CC#N)CN(c3cccn4nc(Nc5ccc6c(c5)CCN([C@H]5CCOC5)C6)nc34)C2)c1 (stereo in doubt) [Example 62, 2-[3-(4-ethylpyrazol-1-yl)-1-[2-[[2-[rac-(3S)-tetrahydrofuran-3-yl]-3,4-dihydro-1H-isoquinolin-6-yl]amino]-[1,2,4]triazolo[1,5-a]pyridin-8-yl]azetidin-3-yl]acetonitrile]	0.4 nM	0.4 nM	49 nM
CCc1cnn(C2(CC#N)CN(c3cccn4nc(Nc5ccc(C(=O)N6CCN(C7CCOCC7)CC6)cc5)nc34)C2)c1 [Example 37, 2-[3-(4-ethylpyrazol-1-yl)-1-[2-[4-(4-tetrahydropyran-4-ylpiperazine-1-carbonyl)anilino]-[1,2,4]triazolo[1,5-a]pyridin-8-yl]azetidin-3-yl]acetonitrile]	0.5 nM	2.9 nM	23 nM
CN1CCN(C2CCN(C(=O)Cn3cc(Nc4nc5c(N6CC(CC#N)(c7cccc(Cl)c7)C6)cccn5n4)cn3)CC2)CC1 [Example 70, 2-[3-(3-chlorophenyl)-1-[2-[[1-[2-[4-(4-methylpiperazin-1-yl)-1-piperidyl]-2-oxo-ethyl]pyrazol-4-yl]amino]-[1,2,4]triazolo[1,5-a]pyridin-8-yl]azetidin-3-yl]acetonitrile]	0.2 nM	0.3 nM	10 nM
CCc1cnn(C2(CC#N)CN(c3cccn4nc(Nc5cnn(CC(=O)N6CCN(C7COC7)CC6)c5)nc34)C2)c1 [Example 32, 2-[3-(4-ethylpyrazol-1-yl)-1-[2-[[1-[2-[4-(oxetan-3-yl)piperazin-1-yl]-2-oxo-ethyl]pyrazol-4-yl]amino]-[1,2,4]triazolo[1,5-a]pyridin-8-yl]azetidin-3-yl]acetonitrile;formic acid]	0.4 nM	0.2 nM	19 nM
COc1cnn(C2(CC#N)CN(c3cccn4nc(Nc5cnn(CC(=O)N6CCN(C)CC6)c5)nc34)C2)c1 [Example 28, 2-[3-(4-methoxypyrazol-1-yl)-1-[2-[[1-[2-(4-methylpiperazin-1-yl)-2-oxo-ethyl]pyrazol-4-yl]amino]-[1,2,4]triazolo[1,5-a]pyridin-8-yl]azetidin-3-yl]acetonitrile]	0.4 nM	1.4 nM	54 nM
CCc1cnn(C2(CC#N)CN(c3cccn4nc(Nc5cnn(CC(=O)N6CCC(CN7CCN(CC(=O)N(C)C)CC7)CC6)c5)nc34)C2)c1 [Example 42, 2-[4-[[1-[2-[4-[[8-[3-(cyanomethyl)-3-(4-ethylpyrazol-1-yl)azetidin-1-yl]-[1,2,4]triazolo[1,5-a]pyridin-2-yl]amino]pyrazol-1-yl]acetyl]-4-piperidyl]methyl]piperazin-1-yl]-N,N-dimethyl-acetamide]	0.4 nM	2.2 nM	42 nM
CCc1cnn(C2(CC#N)CN(c3cccn4nc(Nc5ccc6c(c5)CCN(C5COC5)C6)nc34)C2)c1 [Example 51, 2-[3-(4-ethylpyrazol-1-yl)-1-[2-[[2-(oxetan-3-yl)-3,4-dihydro-1H-isoquinolin-6-yl]amino]-[1,2,4]triazolo[1,5-a]pyridin-8-yl]azetidin-3-yl]acetonitrile]	0.3 nM	1.6 nM	44 nM
CCc1cnn(C2(CC#N)CN(c3cccn4nc(Nc5cccc(CC(=O)N6CCN(C)CC6)c5)nc34)C2)c1 [Example 5, 2-[3-(4-ethyl-1H-pyrazol-1-yl)-1-[2-([3-[2-(4-methylpiperazin-1-yl)-2-oxoethyl]phenyl]amino)-[1,2,4]triazolo[1,5-a]pyridin-8-yl]azetidin-3-yl]acetonitrile]	1.9 nM	3.1 nM	120 nM
CN1CCN(C(=O)Cn2cc(Nc3nc4c(N5CC(CC#N)(Cc6ccccc6)C5)cccn4n3)cn2)CC1 [Example 26, 2-[3-benzyl-1-[2-[[1-[2-(4-methylpiperazin-1-yl)-2-oxo-ethyl]pyrazol-4-yl]amino]-[1,2,4]triazolo[1,5-a]pyridin-8-yl]azetidin-3-yl]acetonitrile]	0.4 nM	2.1 nM	42 nM
CN1CCN(C(=O)Cn2cc(Nc3nc4c(N5CC(CC#N)(n6cc(C(F)(F)F)cn6)C5)cccn4n3)cn2)CC1 [Example 15]	2.2 nM	9.4 nM	> 1000 nM
CCc1ccc(C2(CC#N)CN(c3cccn4nc(Nc5cnn(CC(=O)N6CCN(C)CC6)c5)nc34)C2)cc1 [Example 60, 2-[3-(4-ethylphenyl)-1-[2-[[1-[2-(4-methylpiperazin-1-yl)-2-oxo-ethyl]pyrazol-4-yl]amino]-[1,2,4]triazolo[1,5-a]pyridin-8-yl]azetidin-3-yl]acetonitrile]	0.4 nM	2.9 nM	19 nM
CCc1cnn(C2(CC#N)CN(c3cccn4nc(Nc5ccc(C(=O)N6CC7(CCN(C)CC7)C6)cc5)nc34)C2)c1 [Example 85, 2-[3-(4-ethylpyrazol-1-yl)-1-[2-[4-(7-methyl-2,7-diazaspiro[3.5]nonane-2-carbonyl)anilino]-[1,2,4]triazolo[1,5-a]pyridin-8-yl]azetidin-3-yl]acetonitrile]	1.1 nM	9.3 nM	197 nM
COCCN1CCN(C(=O)Cn2cc(Nc3nc4c(N5CC(CC#N)(c6cccc(Cl)c6)C5)cccn4n3)cn2)CC1 [Example 81, 2-[3-(3-chlorophenyl)-1-[2-[[1-[2-[4-(2-methoxyethyl)piperazin-1-yl]-2-oxo-ethyl]pyrazol-4-yl]amino]-[1,2,4]triazolo[1,5-a]pyridin-8-yl]azetidin-3-yl]acetonitrile]	0.4 nM	1 nM	27 nM
